Experimental data published in patent US20210348164A1, “ENDOGENOUS CYTOPLASMIC ALU COMPLEMENTARY DNA IN AGE-RELATED MACULAR DEGENERATION” (University of Virginia Patent Foundation, priority 2018, published 2021).
Entries after “also recorded” stand apart in the source; their conditions may differ.

Experiments:
Type in all cases: in vivo, mouse
[1] = tested on: Alu RNA-induced RPE degeneration; assay: Alu RNA-induced RPE degeneration in wild-type mice (fundus photography, ZO-1 flat mounts); conditions: WT mice
Experimental: Assessment of RPE degeneration. Subretinal injections were performed as previously described (Kaneko et al., 2011; Tarallo et al., 2012; Kerur et al., 2013; Fowler et al., 2014; Kim et al., 2014). Seven days after subretinal injection, RPE health was assessed by fundus photography and immunofluorescence staining of zonula occludens-1 (ZO-1) on RPE flat mounts (whole mount of posterior eye cup containing RPE and choroid layers). Mouse RPE/choroid flat mounts were fixed with 2% paraformaldehyde, stained with rabbit polyclonal antibodies against mouse ZO-1 (1:100; Invitrogen Corp. Carlsbad, Calif., United States of America) and visualized with Alexa-594 (Invitrogen Corp.). All images were obtained by microscopy (Model SP-5 (Leica Microsystems, Inc., Buffalo Grove, Ill., United States of America) or Nikon MR confocal microscope system (Nikon Instruments Inc. Melville, N.Y., United States of America). Imaging was performed by an operator blinded to the group assignments.
Quantification of RPE degeneration. Quantification of RPE degeneration was performed using two methodologies (binary assignment and cellular morphometry) as described previously (Kerur et al., 2018): Binary assignment (healthy versus unhealthy; Kerur et al., 2013; Fowler et al., 2014; Kim et al., 2014; Kerur et al., 2018) was independently performed by two blinded raters (inter-rater agreement=99.7%; Pearson r2=0.986, P<0.0001; Fleiss x=0.993, P<0.0001). Quantifying cellular morphometry for hexagonally packed cells was performed in semi-automated fashion by three masked graders by adapting our previous analysis of the planar architecture of corneal endothelial cell density (Ach et al., 2015), which resembles the RPE in its polygonal tessellation. Polymegethism (coefficient of variation of cell size), a prominent geometric feature of RPE cells in GA (Kaneko et al., 2011; Dridi et al., 2012; Grossniklaus et al., 2013; Ach et al., 2015), was quantified using the Konan Cell Check software (Ver. 4.0.1), a commercial U.S. FDA-cleared software that has been used for registration clinical trials, as previously described (Kerur et al., 2018).
Subretinal and intravitreous injections. Subretinal injections (1 μl for mice, 3 μl for rat) or intravitreous injections (0.5 μl for mice, 2 μl for rat) in mice or rat were performed using a 35-gauge needle (Ito Co. Fuji, Japan). In vivo transfection of Alu RNA or mutant Alu RNA (3.6-300 ng per eye); Alu complementary DNA (cDNA; 0.0036-90 ng per eye); Alu reverse sequence cDNA (3.6-90 ng per eye); or 7SL cDNA (3.6-90 ng per eye) was performed using 10% NEUROPORTER™ transfection reagent (Genlantis, San Diego, Calif., United States of America) as previously described (Kaneko et al., 2011; Tarallo et al., 2012). […]

[2] = tested on: Alu cDNA; assay: Alu cDNA in RPE flat mounts of Casp1/4 dko mice after subretinal Alu RNA (in situ hybridization); conditions: subretinal Alu RNA (or Alu G25C RNA), NNRTIs at high doses
Experimental: Subretinal and intravitreous injections. Subretinal injections (1 μl for mice, 3 μl for rat) or intravitreous injections (0.5 μl for mice, 2 μl for rat) in mice or rat were performed using a 35-gauge needle (Ito Co. Fuji, Japan). In vivo transfection of Alu RNA or mutant Alu RNA (3.6-300 ng per eye); Alu complementary DNA (cDNA; 0.0036-90 ng per eye); Alu reverse sequence cDNA (3.6-90 ng per eye); or 7SL cDNA (3.6-90 ng per eye) was performed using 10% NEUROPORTER™ transfection reagent (Genlantis, San Diego, Calif., United States of America) as previously described (Kaneko et al., 2011; Tarallo et al., 2012). 3TC, TM-3TC, Cpep-3TC, Cpep, PA-4 3TC, EFV, DLV, or NVP (50 μM/1 μl or 500 μM/1 μl) were administered by intravitreous injection (Mandal et al., 2011; Nasrolahi et al., 2013). 1 μl of cholesterol-conjugated siRNAs (2 μg/μl) targeting mouse LINE1 or Luc (luciferase control; Dharmacon, Lafayette, Colo., United States of America) were subretinally injected three days prior to Alu RNA or vehicle administration. Similarly, in Oryzomys palustris, rat L1 plasmids expressing ORF1p, ORF2p, reverse transcriptase-deficient ORF2p (pORF2 (RT-)), or endonuclease deficient ORF2p (pORF2 (EN-)) were delivered via subretinal injection three days prior to administering Alu RNA or vehicle. The choice of eye for experimental versus control injection was chosen randomly. Rat L1 plasmids expressing ORF1 and ORF2 have been described previously (Kirilyuk et al., 2008). The ORF2 (EN-) construct contained mutations D207A and H232A, which, by CLUSTALW alignment, correspond to human D205A and H230A (see Feng et al., 1996) in the endonuclease domain of ORF2p. The ORF2 (RT-) construct contained mutation D703A, which, by CLUSTALW alignment, corresponds to human D702A (see Moran et al., 1996) in the reverse transcriptase domain of ORF2p.
In situ hybridization. […] Visualization of fluorescein-labelled probe was performed with the TSA™ plus fluorescence system or the TSA™ plus Cy5 system (PerkinElmer). The fluorescent or Cy5 signals were detected using a Leica SP-5 or MR Nikon confocal microscope system.

[3] = tested on: Alu RNA-induced RPE degeneration; assay: Alu RNA-induced RPE degeneration in wild-type mice (fundus photography, ZO-1 flat mounts); conditions: WT mice; intravitreous; low (25 μmol) doses
[4] = intravitreous, high (500 μmol) doses

| Compound | Alu RNA-induced RPE degeneration [1, 4] | Alu cDNA in RPE in vivo [2] | Alu RNA-induced RPE degeneration [3] | Alu RNA-induced RPE degeneration ([1]; subretinal cholesterol-conjugated L1 siRNA vs control siRNA) |
| --- | --- | --- | --- | --- |
| Cc1ccnc2c1NC(=O)c1cccnc1N2C1CC1 [NVP, nevirapine] | did not prevent Alu RNA-induced RPE degeneration at low or high doses | did not prevent Alu cDNA synthesis | did not prevent Alu RNA-induced RPE degeneration at low or high doses | – |
| L1 siRNA: siRNA targeting L1; cholesterol-conjugated mouse L1 siRNA (SEQ ID NOs: 48 and 49) in vivo, human L1 siRNA sequences in human cells (chain 1 ACUAUUACUCUGAUACCTT; chain 2 UGUACUAAGGUCAAAUCTT; cholesterol conjugated, position not given here) | – | – | – | prevented Alu RNA-induced RPE degeneration in wild-type mice; also recorded: blocked Alu RNA induced RPE degeneration |
| CC(C)Nc1cccnc1N1CCN(C(=O)c2cc3cc(NS(C)(=O)=O)ccc3[nH]2)CC1 [DLV, delavirdine] | blocked Alu RNA toxicity; also recorded: inhibited | prevented Alu cDNA formation in vivo; also recorded: blocked endogenous cDNA synthesis | did not block Alu RNA-induced RPE degeneration at low doses | – |
| O=C1Nc2ccc(Cl)cc2[C@@](C#CC2CC2)(C(F)(F)F)O1 [EFV, efavirenz] | blocked Alu RNA toxicity; also recorded: inhibited | prevented Alu cDNA formation in vivo; also recorded: blocked endogenous cDNA synthesis | did not block Alu RNA-induced RPE degeneration at low doses | – |
